# Measurements from the supplement of paper PMC10307832.
# Assays:
# Assay in all cases: relative viability (nuclei count vs DMSO), 5 days (fraction); higher = more cells survive
# Sulindac + Navitoclax = compound: CC1=C(CC(=O)O)c2cc(F)ccc2/C1=C\c1ccc([S+](C)[O-])cc1 [Sulindac] + CC1(C)CCC(c2ccc(Cl)cc2)=C(CN2CCN(c3ccc(C(=O)NS(=O)(=O)c4ccc(N[C@H](CCN5CCOCC5)CSc5ccccc5)c(S(=O)(=O)C(F)(F)F)c4)cc3)CC2)C1 [Navitoclax] (partner 0.5 µM)
# Summary of the method: (§1)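 Cells from lung cancer lines were seeded into 1536-well plates and, one day later, dosed by pin tool. Treatments were either a single drug or a fixed dose of an anchor drug with five library-drug doses (not always all listed) in √10 steps. After 5 days, nuclei were stained in a one-step fixation (final 0.05% Triton X-100, 1% formaldehyde, 1 ug/ml Hoechst) and counted on 4× images, and relative viability is the treated-to-vehicle nuclei ratio, as the median of duplicate plates.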
# Sulindac + Foretinib = compound: CC1=C(CC(=O)O)c2cc(F)ccc2/C1=C\c1ccc([S+](C)[O-])cc1 [Sulindac] + COc1cc2c(Oc3ccc(NC(=O)C4(C(=O)Nc5ccc(F)cc5)CC4)cc3F)ccnc2cc1OCCCN1CCOCC1 [Foretinib] (partner 0.25 µM)
# Summary of the method: as §1
# Sulindac + OSI-027 = compound: CC1=C(CC(=O)O)c2cc(F)ccc2/C1=C\c1ccc([S+](C)[O-])cc1 [Sulindac] + COc1cccc2cc(-c3nc([C@H]4CC[C@H](C(=O)O)CC4)n4ncnc(N)c34)[nH]c12 [OSI-027] (partner 0.5 µM)
# Summary of the method: as §1
# [1] = compound: CN[C@@H]1C[C@H]2O[C@@](C)([C@@H]1OC)n1c3ccccc3c3c4c(c5c6ccccc6n2c5c31)C(=O)NC4 [Staurosporine] + C[C@@H](Oc1cc(-c2cnn(C3CCNCC3)c2)cnc1N)c1c(Cl)ccc(F)c1Cl [Crizotinib] (partner 1 µM)
# Summary of the method: as §1
cell line,measurement,setting,value
UMC-11,relative viability,Sulindac + Navitoclax; first compound 0.08 µM,0.3
same,relative viability,Sulindac + Navitoclax; first compound 0.253 µM,0.305
same,relative viability,Sulindac + Navitoclax; first compound 0.8 µM,0.309
same,relative viability,Sulindac + Navitoclax; first compound 2.53 µM,0.292
same,relative viability,Sulindac + Navitoclax; first compound 8 µM,0.38
same,relative viability,Sulindac + Foretinib; first compound 0.08 µM,1.33
same,relative viability,Sulindac + Foretinib; first compound 0.253 µM,1.12
same,relative viability,Sulindac + Foretinib; first compound 0.8 µM,0.739
same,relative viability,Sulindac + Foretinib; first compound 2.53 µM,0.986
same,relative viability,Sulindac + Foretinib; first compound 8 µM,1.12
same,relative viability,Sulindac + OSI-027; first compound 0.08 µM,0.624
same,relative viability,Sulindac + OSI-027; first compound 0.253 µM,0.502
same,relative viability,Sulindac + OSI-027; first compound 0.8 µM,0.371
same,relative viability,Sulindac + OSI-027; first compound 2.53 µM,0.543
same,relative viability,Sulindac + OSI-027; first compound 8 µM,0.487
same,relative viability,[1]; first compound 0.005 µM,0.544
same,relative viability,[1]; first compound 0.01581 µM,0.406
same,relative viability,[1]; first compound 0.05 µM,0.207
same,relative viability,[1]; first compound 0.1581 µM,0.0703
same,relative viability,[1]; first compound 0.5 µM,0.0402
